Results published in patent US11542298B2, “Hydroxysteroid compounds, their intermediates, process of preparation, composition and uses thereof” (Epirium Bio Inc., priority 2014, dated 2023).

Key:
[1] = system: AMP KINASE; experiment: AMP KINASE activation, cell based ELISA in Hepatoma (Hep 2) liver cells; settings: 30 m, over baseline of 100 (DMSO control)
Protocol: AMP KINASE activation potential of the compounds was evaluated using cell based ELISA·Hepatoma (Hep 2) liver cells were maintained in a T 75 culture flask-containing 25 mM DMEM+10% fetal calf serum. The cells were maintained in a T 75 culture flask-containing medium (DMEM+10% fetal calf serum). On reaching a confluence of 70 to 80%, the cells were seeded in a 96 well plate at a density of 40,000 cells per well in 25 mM DMEM+10% FCS medium. The plates were then incubated at 37° C. with 5% CO2 for 24 hours. Various concentrations of drugs were prepared in DMSO and diluted to required concentration with the medium and incubated at 37° C. with 5% CO2 for 30 min and 1 h for Epicatechin analogs and 11-BHP analogs respectively. Metformin was used as positive control·Cells were fixed with 4% formaldehyde for 30 minutes at room temperature and washed three times with PBS containing 0.1% Triton X-100. Endogenous peroxidase was quenched with 1% H2O2 in PBS-T (0.1% Tween 20) for 30 minutes and washed three times in PBS-T. Cells were blocked with 1% BSA in PBS-T for 1 hour. The cells were incubated with 1:1000 dilution primary antibody (Phospho-AMPKα ([…]) Rabbit mAb, Cell Signaling in PBS-T containing 5% BSA at 4° C. overnight. The cells were then washed three times with PBS-T for 5 minutes and incubated with 1:1000 dilution secondary antibody (Anti-rabbit IgG, HRP-linked Antibody, Cell Signaling) in PBS-T with 1% BSA for 1 hour at RT·Cells were washed three times with PBS-T for 5 minutes The cells were incubated with 100 μl TMB substrate solution for 30 minutes and the reaction was stopped with 100 μl of 2N H2SO4. Then the plate was read at 450 nm using ELISA plate reader and absorbance recorded. % activity was calculated using DMSO control as 100%.

[2] = system: mitochondrial oxidative phosphorylation complex I; experiment: Western blot of mitochondrial oxidative phosphorylation complex I protein levels in human coronary artery endothelial cells; type: cell-based; settings: HCAEC, 48 h, FIG. 1a
Protocol: Cells were grown in Dulbecco's modified Eagle's media supplemented with fetal bovine serum (10%) to ˜90% confluence. Cells were treated with either vehicle (water) or incremental doses of the agent (dissolved in water) for a total of 48 h (treatment was repeated at the 24 h time point). At the end of the experiment, cells were lysed in Western blot sample buffer. A fixed amount of protein (25 micrograms) was loaded onto a polyacrylamide gel and run for 1 h to allow for the electrophoretic separation of proteins. The gel was then transferred onto a polyvinyl membrane for incubation with blocking buffer prior to exposure to the 1ry antibody (anti-human complex […]. Following a 1 h incubation at room temperature the membrane was washed and then exposed to the 2ry antibody for 1 h. after a second set of washes the membrane was incubated with an enhanced-chemiluminescence kit solution followed by exposure to X-ray film. The image obtain was used to quantitative changes in complex I protein levels as a function of compound dose. To normalize for loading differences the membrane was re-incubated (as above) with the subunit 6 ribosomal protein (S6RP) and exposed to X-ray film. Changes in values for complex I levels are normalized to differences in S6RP levels. All data are normalized to the values noted for cells treated with vehicle only (=100%). The results are presented at FIG. 1 a.

[3] = system: HepG2 cells; experiment: Intracellular glucose production (de novo gluconeogenesis) in HepG2 cells; type: cell-based; settings: HepG2, FIG. 5
Protocol: (§1) HepG2 cells were exposed to serum-free media for 3 hours and then exposed to gluconeogenic factors (lactate and pyruvate 10:1 ratio) and stimulators (cAMP) in the presence of increasing concentrations of OHP (in nM). Intracellular glucose production—a marker of de novo gluconeogenesis—was determined enzymatically (biovision glucose determination kit), as well as intracellular beta-hydroxybutyrate levels (a marker of fat oxidation) and triglycerides (substrate for fat oxidation). […] The results are depicted at FIG. 5.

[4] = system: HepG2 cells; experiment: Mitochondrial DNA content in HepG2 cells; type: cell-based; settings: HepG2, 24 hours, FIG. 3b
Description: The results are depicted at FIGS. 3a and 3b.

[5] = system: AMPKinase; experiment: AMPKinase activation in HepG2 cells (Western blot of phosphorylated AMPK and ACC); type: cell-based; settings: HepG2, 1 hour, FIG. 2a
Description: OHP effects on AMPKinase activation in HepG2 cells. […] (RNeasy kit, QIAGEN). OHP effects on APPL1 nuclear translocation. […] The results are presented at FIGS. 2a and 2b.

[6] = system: HepG2 cells; experiment: Fat oxidation (intracellular beta-hydroxybutyrate, triglycerides) in HepG2 cells; type: cell-based; settings: HepG2, FIG. 5
Protocol: as §1

[7] = listed as 11β-hydroxypregnenolone

CC(=O)C1CC[C@H]2[C@@H]3CC=C4CC(O)CC[C@]4(C)[C@H]3[C@@H](O)C[C@]12C (stereo partly drawn) [Compound 1039, 1-((8S,9S,10R,11S,13S,14S)-3,11-dihydroxy-10,13-dimethyl-2,3,4,- 7,8,9,10,11,12,13,14,15,16,17-tetradecahydro-1H-cyclopenta[a]-phenanthren-17-yl)ethanone]
% pAMPK ([1]; 0.1 nM): 109% | mitochondrial biogenesis (complex I protein levels) [2]: causes mitochondrial biogenesis | mitochondrial biogenesis (complex I protein levels) [2, 7]: mitochondrial biogenesis | hepatic gluconeogenesis (intracellular glucose production) [3]: reduces hepatic gluconeogenesis | hepatic gluconeogenesis (intracellular glucose production) [3, 7]: reduction of hepatic gluconeogenesis | mitochondrial DNA content [4]: increases the DNA content of mitochondria | mitochondrial DNA content [4, 7]: increase of mitochondrial DNA content | activation of AMP kinase [5]: activates AMPkinase | activation of AMP kinase [5, 7]: activation of AMP KINASE | fat oxidation [6]: stimulates oxidation of fat | fat oxidation [6, 7]: stimulation of fat oxidation

CC(=O)C1CC[C@H]2[C@@H]3CCC4=CC(=O)CC[C@]4(C)[C@H]3[C@@H](O)C[C@]12C (stereo partly drawn) [Compound 1040, (8S,9S,10R,11S,13S,14S)-17-acetyl-11-hydroxy-10,13-dimethyl-6,7,8,9,10,11,12,13,- 14,15,16,17-dodecahydro-1H-cyclopenta[a]phenanthren-3(2H)-one]
% pAMPK ([1]; 0.1 nM): 118%

CN(C)C(=N)N=C(N)N [Metformin, reference compound]
% pAMPK ([1]; 2 mM): 121%
